pIC50, pKi: −log10 of the molar value.
Columns and labels:
Format in all cases: biochemical
[1] = target: T1, murine iNOS (Mus musculus, UniProt P29477); experiment: NOS enzyme inhibitory assay (hemoglobin capture), iNOS; details: Table 1a; for pKi: apparent Ki calculated from IC50, Km […], read-out: calc. Ki iNOS; for pIC50: murine iNOS, 10 μM L-arginine
T1 construct: made in house; host or cells: E. coli (plasmid pCWiNOS)
Description: (§1) All of the NOS isoforms used were recombinant enzymes overexpressed in E. coli from different sources. Nitric oxide formation from NOS was monitored by the hemoglobin capture assay as described in the literature.
Enzyme inhibitory assay. All of the NOS isoforms used are recombinant enzymes overexpressed in E. coli from different sources.
iNOS expression: An overnight culture of pCWiNOS was used to inoculate (1:100) larger cultures of Terrific Broth media (12 g/L tryptone, 24 g/L yeast extract, 4 mL/L glycerol, 17 mM KH2PO4, and 72 mM K2HPO4) containing 50 μg/mL ampicillin and 34 μg/mL chloramphenicol at 37° C. At an OD600 of ˜0.5, the culture was cooled to 25° C. and induced by the addition of 1 mM IPTG (final concentration). After approximately 24 h of growth at 25° C., the cells were pelleted at 5300×g, transferred to 50 mL conical tubes, and stored at −80° C.
iNOS purification: Cell pellets from 1.0 L of culture were resuspended in sonication buffer (50 mM Hepes, pH 7.4, 10% glycerol, 10 μg/mL benzamidine, 5 μg/mL leupeptin, 0.2 mM of PMSF, and 1 μg/mL each of pepstatin, chymostatin, and antipain) and lysed by sonication. Centrifugation for 20 min at 13000×g yielded supernatant which contained iNOS active enzyme. iNOS supernatant was loaded onto 1 g of a 2′,5′-ADP-Sepharose 4B resin column. The column was then washed with 20 ml iNOS purification buffer (10 mM K2HPO4, 10% glycerol, 0.5 mM L-arginine, pH 7.4) and 10 μM BH4. Inducible NOS was eluted with 30 ml iNOS purification buffer supplemented with 10 mM 2′(3′)-AMP, 10 μM BH4, and 0.3 M NaCl. The eluent was concentrated to 5 ml by ultrafiltration. The above concentration operation was repeated three times more with 10 ml Hepes buffer supplemented with 10 μM BH4, to give purified inducible NOS.
(§2) Nitric oxide formation from NOS was monitored by the hemoglobin capture assay as described previously. (Hevel, J. M.; Marletta, M. A. Nitric Oxide Synthase Assays. Methods Enzymol. 1994, […], 250-258).
(§3) The selectivity of an inhibitor is defined as the ratio of the respective Ki values.

[2] = target: T2, rat nNOS (Rattus norvegicus, UniProt P29476); experiment: NOS enzyme inhibitory assay (hemoglobin capture), nNOS; details: Table 1a; for Selectivity n/i: Ki(iNOS)/Ki(nNOS); for pKi: apparent Ki calculated from IC50, Km […], read-out: calc. Ki nNOS; for pIC50: rat nNOS, 10 μM L-arginine
T2 construct: made in house; host or cells: E. coli (plasmid pCWnNOS)
Description: as §1
After approximately 48 h of post-induction incubation in the dark at 25° C. the cells were pelleted at 5300×g, transferred to 50 mL conical tubes, and stored at −80° C.
nNOS purification: Cell pellets from 2.0 L of culture were resuspended in sonication Buffer A (50 mM Tris Base Buffer, pH 8.0, 10% glycerol), 2 mg/ml lysozyme. 0.5 mM L-arginine. 1 mM EDTA, 0.1 mM PMSF, 1 µg/ml antipain, and 1 μM each of leupeptin, […], and […]) and lysed by sonication. Centrifugation for 1 h at 100000×g yielded supernatant which contained nNOS active enzyme. The supernatant was brought to 2 mM CaCl2 and the protein was loaded onto a 15 ml calmodulin-Sepharose column equilibrated with Buffer A containing 2 mM CaCl2. The column was washed with 100 ml Buffer B (50 mM Hepes, 5 mM DTT, and […]) containing 2 mM CaCl2, 0.5 mM L-arginine, and 10 μM BH4, and eluted with 30 ml Buffer B supplemented with 0.3 M NaCl, 5 mM EGTA, 0.5 mM L-arginine, and 10 μM BH4. The protein was then loaded onto a 5 ml 2′,5′-ADP-Sepharose column equilibrated with Buffer B supplemented with 0.3 M NaCl, 0.5 mM L-arginine, and 10 μM BH4. The column was washed with 25 ml Buffer B containing 0.5 mM L-arginine and 10 μM BH4, and then 25 ml of Buffer B only supplemented with 10 μM BH4 (without L-arginine). Neuronal NOS was eluted with 20 ml Buffer B supplemented with 10 mM 2′(3′)-AMP, 10 μM BH4 and 0.3 M NaCl. The 20 ml eluent was then concentrated to 5 ml by ultrafiltration. The above concentration operation was repeated twice more with 10 ml Buffer B supplemented with 10 µM BH4 to give the purified neuronal NOS.
Nitric oxide formation from NOS was monitored by the hemoglobin capture assay as described previously.
as §3

[3] = target: T3, bovine eNOS (Bos taurus, UniProt P29473); experiment: NOS enzyme inhibitory assay (hemoglobin capture), eNOS; details: Table 1b; read-out: Ki eNOS
T3 construct: made in house; host or cells: E. coli (plasmid Bov-eNOSpCW)
Description: as §1
Expression of bovine eNOS: An overnight culture of Bov-eNOSpCW was used to inoculate 0.5 liter (in a 2.8-liter Fernbach flask) of modified TB (20 g of yeast extract, 10 g of bacto-tryptone, 2.65 g of KH2PO4, 4.33 g of Na2HPO4 and 4 ml of glycerol per liter) containing ampicillin ([…]) and chloramphenicol ([…]). The cultures were grown to an OD600 of z0.8 at 22° C. (200 rpm) and induced with 0.5 mM IPTG. One hour before IPTG induction, d-aminolevulinic acid (0.5 mM final) was added and, at the time of IPTG induction, riboflavin ([…]) and ATP (1 mM final) were also added. After induction, the flasks were kept in the dark at 22° C. (200 rpm). The cells were harvested 48 h after induction, and the cell pellet was frozen at −80° C. until purification was carried out.
Purification of bovine eNOS. The purification was typically carried out with eNOS from 2 liters of E. coli culture. The eNOS protein was purified using a modification of the published protocol for nNOS (14). The cells were resuspended in buffer C [50 mM Tris-Cl, pH 7.8, 1 mM EDTA, 1 mM DTT, 10% glycerol (v/v), 150 mM NaCl, 0.1 mM phenylmethylsulfonyl fluoride, […]], lysed by pulsed sonication and then centrifuged to sediment the cell debris. The supernatant was applied to a 2′,5′-ADP Sepharose 4B column equilibrated in buffer D [50 mM Tris-Cl, pH 7.8, 0.1 mM EDTA, 0.1 mM dithiothreitol, 150 mM NaCl, 10% glycerol (v/v)]. The column was washed with 20 column volumes of buffer B and again with 20 column volumes of buffer B containing 600 mM NaCl. Finally, protein was eluted with buffer B containing 600 mM NaCl and 5 mM 2′-AMP. The fractions were screened for absorption in the Soret region (A400) and hemoprotein-containing fractions were pooled and concentrated (Centriprep 50, Amicon). Repeated dilution/concentration [50 mM Tris-Cl, pH 7.8, 0.1 mM EDTA, 0.1 mM dithiothreitol, 10% glycerol (vol/vol)] was used to reach a final concentration of 150 mM NaCl and commensurately reduce the 2′-AMP content. […] The purified eNOS is stored in the presence of 1 mM L-arginine.
eNOS washing: eNOS contains a significant amount of L-arginine, which will interfere with the enzyme assay. The L-arginine can be removed by several dilution and concentration steps using an Amico concentrator. The dilution buffer is 10 ml Tris-HCl 50 mM containing 0.1 mM EDTA, 400 mM NaCl, 10% glycerol and 1 mM beta-mercaptoethanol. The above dilution and concentration operation was repeated three times to give purified eNOS.
as §2, §3

Structure (SMILES)	pKi [1]	pIC50 [1]	Selectivity n/i [2]	pKi [2]	pIC50 [2]	pKi [3]
Cl.Cl.Nc1cccc(CC2CN(Cc3ccccc3)CC2O)n1 (racemic) [Compound P-1]	3.04	2.69	11.71	4.11	3.17	
Cl.Cl.Cl.Nc1cccc(C[C@H]2CN(Cc3ccccc3)C[C@@H]2NCCCc2ccccc2)n1 (racemic) [Compound P-2]	4.22	3.88	4.3	4.85	3.92	
Cl.Cl.Cl.Nc1cccc(C[C@H]2CN(Cc3ccccc3)C[C@@H]2NCCCO)n1 (racemic) [Compound P-3]	2.76	2.41	9.19	3.72	2.78	
Cl.Cl.Cl.Nc1cccc(C[C@H]2CN(Cc3ccccc3)C[C@H]2NCCCc2ccccc2)n1 (racemic) [Compound P-4]	3.22	2.87	12.71	4.32	3.38	
Cl.Cl.Cl.Nc1cccc(CC2CN(Cc3ccccc3)CC2NCCCO)n1 (racemic) [Compound P-5]	2.60	2.25	8.27	3.52	2.58	
Cl.Cl.Cl.NCCN1C[C@H](Cc2cccc(N)n2)[C@@H](O)C1 (racemic) [Compound P-6]	3.98	3.64	8.41	4.91	3.97	
Cl.Cl.Cl.Cl.NCCN1CC(Cc2cccc(N)n2)C(NCCCc2ccccc2)C1 (racemic) [Compound P-7]	3.36	3.02	109.99	5.40	4.46	
NCCN1CC(Cc2cccc(N)n2)C(NCCCO)C1 (racemic) [Compound P-8]	3.19	2.84				
Cl.Cl.Cl.Cl.NCCN1CC(Cc2cccc(N)n2)C(NCCCc2ccccc2)C1 (racemic) [Compound P-9]	3.53	3.19	10.28	4.54	3.60	
NCCN1C[C@H](Cc2cccc(N)n2)[C@H](NCCCO)C1 (racemic) [Compound P-10]	2.90	2.56				
Nc1cccc(CC2CNCC2NCCCO)n1 (racemic) [Compound P-13]	3.63	3.29				
Nc1cccc(C[C@H]2CNC[C@H]2NCCCO)n1 (racemic) [Compound P-28]	3.84	3.50				
Cl.Cl.Cl.Cl.NCCNC1CC(N)CC1Cc1cccc(N)n1 (racemic) [Compound P-44]	4.28	3.94	21.02	5.61	4.67	
Cl.Cl.Cl.Cl.NCCNC1CC(N)CC1Cc1cccc(N)n1 (racemic) [Compound P-45]	4.15	3.80	15.51	5.34	4.40	
Cc1cc(N)nc(CC2CNCC2NCCNCc2ccc(C(F)(F)F)cc2)c1.Cl.Cl.Cl.Cl (racemic) [Compound P-56]						4.21
Cl.Cl.Cl.Cl.Nc1cccc(CC2CNCC2NCC2CCCN2)n1 (stereo not drawn) [Compound P-23]	3.98	3.64	9.30	4.95	4.01	
Cl.Cl.Cl.Cl.Nc1cccc(CC2CNCC2NCC2CCCN2)n1 (stereo not drawn) [Compound P-24]	3.51	3.17	21.15	4.84	3.90	
Cl.Cl.Cl.Cl.Nc1cccc(CC2CNCC2NCC2CCCN2)n1 (stereo not drawn) [Compound P-25]	4.73	4.39	7.58	5.61	4.67	
Cl.Cl.Cl.Cl.Nc1cccc(C[C@@H]2CNC[C@H]2NC[C@H]2CCCN2)n1 [Compound P-26]	3.77	3.43	13.82	4.91	3.97	
Cl.Cl.Cl.Cl.Nc1cccc(CC2CNCC2NCC2CCCN2)n1 (stereo not drawn) [Compound P-40]	4.08	3.74	23.95	5.46	4.52	
Cl.Cl.Cl.Cl.Nc1cccc(C[C@@H]2CNC[C@@H]2NC[C@@H]2CCCN2)n1 [Compound P-41]	4.58	4.23	4.67	5.25	4.31	
Cl.Cl.Cl.Cl.Nc1cccc(C[C@H]2CNC[C@H]2NC[C@H]2CCCN2)n1 [Compound P-42]	4.15	3.81	31.97	5.66	4.72	
Cl.Cl.Cl.Cl.Nc1cccc(C[C@@H]2CNC[C@@H]2NC[C@H]2CCCN2)n1 [Compound P-43]	4.38	4.03	9.22	5.34	4.40	

From patent US7994326B2 (Northwestern University, priority 2003, dated 2011)
